From ChEMBL document CHEMBL5727849, “Piperidinone formyl peptide 2 receptor and formyl peptide 1 receptor agonists” (2020)

How the values were obtained:
[1] = biological target: T1, fMet-Leu-Phe receptor (Homo sapiens, UniProt P21462); test: (§1) cAMP Assay: FPR2 and FPR1 Cyclic Adenosine Monophosphate (cAMP) Assays. A mixture of forskolin (5 μM final for FPR2 or 10 μM final for FPR1) and IBMX (200 μM final) were added to 384-well Proxiplates (Perkin-Elmer) pre-dotted with test compounds in DMSO (1% final) at final concentrations in the range of 0.020 nM to 100 μM. Chinese Hamster Ovary cells (CHO) overexpressing human FPR1 or human FPR2 receptors were cultured in F-12 (Ham's) medium supplemented with 10% qualified FBS, 250 μg/ml zeocin and 300 μg/ml hygromycin (Life Technologies). Reactions were initiated by adding 2,000 human FPR2 cells per well or 4,000 human FPR1 cells per well in Dulbecco's PBS (with calcium and magnesium) (Life Technologies) supplemented with 0.1% BSA (Perkin-Elmer). The reaction mixtures were incubated for 30 min at room temperature. The level of intracellular cAMP was determined using the HTRF HiRange cAMP assay reagent kit (Cisbio) according to manufacturer's instruction. Solutions of cryptate conjugated anti-cAMP and d2 flurorophore-labelled cAMP were made in a supplied lysis buffer separately. Upon completion of the reaction, the cells were lysed with equal volume of the d2-cAMP solution and anti-cAMP solution. After a 1-h room temperature incubation, time-resolved fluorescence intensity was measured using the Envision (Perkin-Elmer) at 400 nm excitation and dual emission at 590 nm and 665 nm.; type: cell-based
T1 sequence (P21462 whole entry): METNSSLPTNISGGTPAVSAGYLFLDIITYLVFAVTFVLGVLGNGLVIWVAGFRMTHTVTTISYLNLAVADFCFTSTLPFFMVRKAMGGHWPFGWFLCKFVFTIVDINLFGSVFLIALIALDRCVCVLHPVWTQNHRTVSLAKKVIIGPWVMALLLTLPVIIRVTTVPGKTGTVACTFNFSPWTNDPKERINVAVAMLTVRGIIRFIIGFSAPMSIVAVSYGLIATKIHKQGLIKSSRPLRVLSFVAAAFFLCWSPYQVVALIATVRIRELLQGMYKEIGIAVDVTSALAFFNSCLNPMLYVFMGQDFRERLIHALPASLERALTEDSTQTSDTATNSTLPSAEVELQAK

[2] = biological target: T2, N-formyl peptide receptor 2 (Homo sapiens, UniProt P25090); test: as §1; type: cell-based
T2 sequence (P25090 whole entry): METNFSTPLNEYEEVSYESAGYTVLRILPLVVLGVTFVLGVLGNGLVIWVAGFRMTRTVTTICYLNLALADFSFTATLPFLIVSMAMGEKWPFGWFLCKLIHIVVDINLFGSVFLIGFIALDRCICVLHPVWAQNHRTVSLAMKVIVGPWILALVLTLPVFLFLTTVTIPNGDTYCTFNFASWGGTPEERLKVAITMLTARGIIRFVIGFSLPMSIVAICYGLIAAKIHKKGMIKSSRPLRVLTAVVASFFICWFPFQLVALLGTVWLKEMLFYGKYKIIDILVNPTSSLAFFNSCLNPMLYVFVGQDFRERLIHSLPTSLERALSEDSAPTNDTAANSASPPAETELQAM

Compound | EC50 [1] | EC50 [2]
O=C(Nc1ccc(Cl)cc1)N[C@@H]1CCCN(c2ccc(-c3c(Cl)cccc3Cl)cc2)C1=O | 14 nM | 11 nM
NC(=O)c1ccccc1-c1ccc(N2CCC[C@@H](NC(=O)Nc3ccc(F)c(F)c3)C2=O)cc1 | 1700 nM | 840 nM
